Laboratory results reported in BigSolDB 2.1.

SMILES: OCc1ccc(O[C@@H]2O[C@H](CO)[C@@H](O)[C@H](O)[C@H]2O)cc1
- solubility (mole fraction) (in 1,4-dioxane, 288.15 K): 0.00324
- solubility (mole fraction) (in 1,4-dioxane, 293.15 K): 0.00373
- solubility (mole fraction) (in 1,4-dioxane, 298.15 K): 0.0043
- solubility (mole fraction) (in 1,4-dioxane, 303.15 K): 0.00493
- solubility (mole fraction) (in 1,4-dioxane, 308.15 K): 0.00562
- solubility (mole fraction) (in 1,4-dioxane, 313.15 K): 0.0063
- solubility (mole fraction) (in acetone, 273.15 K): 0.00097
- solubility (mole fraction) (in acetone, 278.15 K): 0.00117
- solubility (mole fraction) (in acetone, 283.15 K): 0.00142
- solubility (mole fraction) (in acetone, 288.15 K): 0.00171
- solubility (mole fraction) (in acetone, 293.15 K): 0.00199
- solubility (mole fraction) (in acetone, 298.15 K): 0.00233
- solubility (mole fraction) (in acetone, 303.15 K): 0.00273
- solubility (mole fraction) (in acetone, 308.15 K): 0.00318
- solubility (mole fraction) (in acetone, 313.15 K): 0.00368
- solubility (mole fraction) (in acetonitrile, 273.15 K): 0.00066
- solubility (mole fraction) (in acetonitrile, 278.15 K): 0.00076
- solubility (mole fraction) (in acetonitrile, 283.15 K): 0.00088
- solubility (mole fraction) (in acetonitrile, 288.15 K): 0.001
- solubility (mole fraction) (in acetonitrile, 293.15 K): 0.00115
- solubility (mole fraction) (in acetonitrile, 298.15 K): 0.0013
- solubility (mole fraction) (in acetonitrile, 303.15 K): 0.00147
- solubility (mole fraction) (in acetonitrile, 308.15 K): 0.00166
- solubility (mole fraction) (in acetonitrile, 313.15 K): 0.00188
- solubility (mole fraction) (in cyclohexane, 273.15 K): 0.000383
- solubility (mole fraction) (in cyclohexane, 278.15 K): 0.000624
- solubility (mole fraction) (in cyclohexane, 283.15 K): 0.000909
- solubility (mole fraction) (in cyclohexane, 288.15 K): 0.00125
- solubility (mole fraction) (in cyclohexane, 293.15 K): 0.0016
- solubility (mole fraction) (in cyclohexane, 298.15 K): 0.00213
- solubility (mole fraction) (in cyclohexane, 303.15 K): 0.00261
- solubility (mole fraction) (in cyclohexane, 308.15 K): 0.00326
- solubility (mole fraction) (in cyclohexane, 313.15 K): 0.00396
- solubility (mole fraction) (in cyclohexanone, 273.15 K): 0.00128
- solubility (mole fraction) (in cyclohexanone, 278.15 K): 0.00152
- solubility (mole fraction) (in cyclohexanone, 283.15 K): 0.00185
- solubility (mole fraction) (in cyclohexanone, 288.15 K): 0.0022
- solubility (mole fraction) (in cyclohexanone, 293.15 K): 0.00257
- solubility (mole fraction) (in cyclohexanone, 298.15 K): 0.00299
- solubility (mole fraction) (in cyclohexanone, 303.15 K): 0.00344
- solubility (mole fraction) (in cyclohexanone, 308.15 K): 0.00396
- solubility (mole fraction) (in cyclohexanone, 313.15 K): 0.00455
- solubility (mole fraction) (in ethanol, 273.15 K): 0.00085
- solubility (mole fraction) (in ethanol, 278.15 K): 0.00105
- solubility (mole fraction) (in ethanol, 283.15 K): 0.00129
- solubility (mole fraction) (in ethanol, 288.15 K): 0.00157
- solubility (mole fraction) (in ethanol, 293.15 K): 0.00188
- solubility (mole fraction) (in ethanol, 298.15 K): 0.0022
- solubility (mole fraction) (in ethanol, 303.15 K): 0.00255
- solubility (mole fraction) (in ethanol, 308.15 K): 0.00296
- solubility (mole fraction) (in ethanol, 313.15 K): 0.00337
- solubility (mole fraction) (in ethyl acetate, 273.15 K): 0.00174
- solubility (mole fraction) (in ethyl acetate, 278.15 K): 0.002
- solubility (mole fraction) (in ethyl acetate, 283.15 K): 0.00234
- solubility (mole fraction) (in ethyl acetate, 288.15 K): 0.00274
- solubility (mole fraction) (in ethyl acetate, 293.15 K): 0.00318
- solubility (mole fraction) (in ethyl acetate, 298.15 K): 0.00364
- solubility (mole fraction) (in ethyl acetate, 303.15 K): 0.00418
- solubility (mole fraction) (in ethyl acetate, 308.15 K): 0.00481
- solubility (mole fraction) (in ethyl acetate, 313.15 K): 0.00543
- solubility (mole fraction) (in isopropanol, 273.15 K): 0.00114
- solubility (mole fraction) (in isopropanol, 278.15 K): 0.00139
- solubility (mole fraction) (in isopropanol, 283.15 K): 0.00169
- solubility (mole fraction) (in isopropanol, 288.15 K): 0.002
- solubility (mole fraction) (in isopropanol, 293.15 K): 0.00235
- solubility (mole fraction) (in isopropanol, 298.15 K): 0.00271
- solubility (mole fraction) (in isopropanol, 303.15 K): 0.00312
- solubility (mole fraction) (in isopropanol, 308.15 K): 0.00356
- solubility (mole fraction) (in isopropanol, 313.15 K): 0.00403
- solubility (mole fraction) (in n-butanol, 273.15 K): 0.0368
- solubility (mole fraction) (in n-butanol, 278.15 K): 0.0395
- solubility (mole fraction) (in n-butanol, 283.15 K): 0.0423
- solubility (mole fraction) (in n-butanol, 288.15 K): 0.0454
- solubility (mole fraction) (in n-butanol, 293.15 K): 0.0486
- solubility (mole fraction) (in n-butanol, 298.15 K): 0.0521
- solubility (mole fraction) (in n-butanol, 303.15 K): 0.0557
- solubility (mole fraction) (in n-butanol, 308.15 K): 0.0595
- solubility (mole fraction) (in n-butanol, 313.15 K): 0.0633
- solubility (mole fraction) (in n-propanol, 273.15 K): 0.00074
- solubility (mole fraction) (in n-propanol, 278.15 K): 0.00094
- solubility (mole fraction) (in n-propanol, 283.15 K): 0.00115
- solubility (mole fraction) (in n-propanol, 288.15 K): 0.00138
- solubility (mole fraction) (in n-propanol, 293.15 K): 0.00165
- solubility (mole fraction) (in n-propanol, 298.15 K): 0.00194
- solubility (mole fraction) (in n-propanol, 303.15 K): 0.00226
- solubility (mole fraction) (in n-propanol, 308.15 K): 0.00262
- solubility (mole fraction) (in n-propanol, 313.15 K): 0.00301
- solubility (mole fraction) (in toluene, 273.15 K): 0.00148
- solubility (mole fraction) (in toluene, 278.15 K): 0.0018
- solubility (mole fraction) (in toluene, 283.15 K): 0.00212
- solubility (mole fraction) (in toluene, 288.15 K): 0.00248
- solubility (mole fraction) (in toluene, 293.15 K): 0.00288
- solubility (mole fraction) (in toluene, 298.15 K): 0.0033
- solubility (mole fraction) (in toluene, 303.15 K): 0.00378
- solubility (mole fraction) (in toluene, 308.15 K): 0.00431
- solubility (mole fraction) (in toluene, 313.15 K): 0.00493
